Consider 2 compounds from patent publication US10308682B2, “Inhibition of tumor growth with aggregates of small molecules” (BRANDEIS UNIVERSITY, priority 2013, dated 2019).

The test system of one data set is HeLa cells. Description: Cell viability assay (MTT), HeLa cells. It is filed as cell-based. As to the method: Cells in exponential growth phase were seeded in a 96 well plate at a concentration of 50,000 cell/well. The cells were allowed to attach to the wells for 24 h at 37° C., 5% CO2, then the culture medium was removed and 100 μL new culture medium containing 1 at gradient concentrations was placed into each well. After culturing at 37° C., 5% CO2 for desired time, each well was added by 10 μL of 5 mg/mL MTT 43-(4,5-Dimethylthiazol-2-yl)-2,5-diphenyltetrazolium bromide), and the plated cells were incubate at dark for 4 h. 100 μL 10% SDS with 0.01 M HCl was added to each well to stop the reduction reaction and to dissolve the purple. After incubation of the cells at 37° C. for overnight, the viability is measured. Data represent the mean±standard deviation of three independent experiments.
The estimation of the threshold concentration of aggregation (320-340 μM) for 1 allows us to examine the cytotoxicity of 1 in monomer and molecular aggregate forms. We first tested the cytotoxicity of 1 towards HeLa cells, the most widely studied cancer cell line, below and above the threshold concentration.

Data set [1] is described as follows: Self-assembly: gelation and aggregation ability. Type of data set: physicochemical. An excerpt: FIG. 22 depicts the characteristics and cytotoxicity of a structural analog of 1.
Another often overlooked feature of amyloid oligomers is that their cytotoxicity is independent of chirality of the amino acids.

For data set [2] the following is noted: cited from earlier work.

Regarding `O=C(Cc1ccc2ccccc2c1)N[C@@H](Cc1ccc(O)cc1)C(=O)N[C@@H](Cc1ccc(O)cc1)C(=O)O` [Nap-YY], the “cytotoxicity (MTT, HeLa cells) compared with 1” value in the data set with HeLa cells is reported as “lower cytotoxicity than 1”. Also, the “gelation ability compared with 1” value in data set [1] is on record as “poorer gelation ability”.

Take transthyretin: the “IC50 (cytotoxicity of aberrant protein aggregates)” value in data set [2] was 200 µg/mL.
